Laboratory results taken from patent publication US20250313546A1, “NUCLEIC ACID BINDERS” (UNIVERSITY OF STRATHCLYDE, priority 2022, published 2025).
In brackets after ≈: the same amount, converted by molar mass. Where two headings read alike, the source gives them in different places.

Experiments:
[1] = test system: Fusarium solani; assay: Expanded set of filamentous fungi, MIC broth microdilution (CLSI); format: cell-based; details: MIC at 50% inhibition; for MIC50: Fusarium solani, isolate F4; for MIC50 Fusarium solani: isolate DI19-284
[2] = test system: Aspergillus fumigatus; assay: as above; format: cell-based
[3] = test system: Candida glabrata (ACPF3309); details: Nakaseomyces glabratus, read-out: MIC99 Candida glabrata
[4] = test system: Staphylococcus aureus (ATCC 43300); assay: Antibacterial MIC, broth microdilution (CLSI); format: cell-based; details: for S. aureus Selectivity Indices, Group: SI, IC50 (μM)/MIC80 (μM), HEK293 cytotoxicity, Alkyl Amidines and NH Pyrroles; for MIC80: Staphylococcus aureus, ATCC43300, read-out: MIC80 S. aureus
[5] = test system: Rhizopus arrhizus (NEQAS12.35321); details: read-out: MIC99 Rhizopus arrhizus
[6] = test system: Blastomyces dermatitidis; assay: Expanded set of filamentous fungi, MIC broth microdilution (CLSI); format: cell-based
[7] = test system: Fusarium oxysporum; assay: as above; format: cell-based; details: MIC at 50% inhibition; for MIC50: Fusarium oxysporum, isolate F2; for MIC50 Fusarium oxysporum: isolate F3
[8] = test system: C. krusei; assay: Expanded set of yeasts, MIC broth microdilution (CLSI); format: cell-based; details: Pichia kudriavzevii, ATCC6258; isolate ATCC 6258; MIC at 50% inhibition
[9] = test system: Scedosporium spp.; assay: Expanded set of filamentous fungi, MIC broth microdilution (CLSI); format: cell-based
[10] = test system: Candida parapsilosis; assay: Expanded set of yeasts, MIC broth microdilution (CLSI); format: cell-based; details: MIC at 50% inhibition; for MIC50: Lodderomyces parapsilosis
[11] = test system: Genomic double stranded DNA (salmon); assay: Fluorescence intercalator displacement (FID) assay, SYBR-safe probe; details: 20 μM compound, 30° C., lower % = stronger binding
Procedure, shortened: (§1)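 Probe displacement was measured at 30 °C in 1 mM phosphate pH 7.4 containing SybrSafe (12500-fold dilution), 3.76 ng/mL nucleic acid (salmon dsDNA or polyAU dsRNA) and 20 μM compound. Fluorescence loss is normalised between probe-only and probe-plus-nucleic-acid controls.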

[12] = test system: PolyAU double stranded RNA; assay: as above; details: 20 μM compound, 30° C., lower % = stronger binding
Procedure, shortened: as §1

[13] = test system: Enterococcus faecalis (ATCC 51299); assay: Antibacterial MIC, broth microdilution (CLSI); format: cell-based; details: Enterococcus faecalis, ATCC51299; read-out: MIC80 E. faecalis
[14] = test system: A. flavus (CBS 128.202); details: Aspergillus flavus, CBS128, read-out: MIC99 A. flavus
Experimental: (§2) The Minimum Inhibitory Concentration (MIC, at 99% inhibition) of the compounds was determined using the broth microdilution method as recommended by EUCAST (EUCAST Definitive Document E.DEF 9.3.2, Method for the determination of broth dilution minimum inhibitory concentrations of antifungal agents for conidia forming moulds and EUCAST Definitive Document E.DEF 7.3.2 Method for the determination of broth dilution minimum inhibitory concentrations of antifungal agents for yeasts).

[15] = test system: Scedosporium prolificans (F2746); details: Lomentospora prolificans, read-out: MIC99 Scedosporium prolificans
[16] = test system: Lomentospora prolificans; assay: Expanded set of filamentous fungi, MIC broth microdilution (CLSI); format: cell-based; details: isolate S2, MIC at 50% inhibition
[17] = test system: C. neoformans (F10025); details: Cryptococcus neoformans, read-out: MIC99 C. neoformans
Experimental: as §2

[18] = test system: Escherichia coli (ATCC 25922); assay: Antibacterial MIC, broth microdilution (CLSI); format: cell-based; details: Escherichia coli, ATCC25922; read-out: MIC80 E. coli
[19] = test system: C. albicans; assay: Expanded set of yeasts, MIC broth microdilution (CLSI); format: cell-based; details: MIC at 50% inhibition; for MIC50: Candida albicans; for MIC50 C. albicans: isolate CA90028
[20] = test system: C. auris; assay: as above; format: cell-based; details: MIC at 50% inhibition; for MIC50: Candidozyma auris, isolate DI17-47
[21] = test system: Paecilomyces variotii; assay: Expanded set of filamentous fungi, MIC broth microdilution (CLSI); format: cell-based; details: isolate MYA-3630, MIC at 50% inhibition
[22] = isolate AF293, MIC at 50% inhibition
[23] = isolate DI15-106, MIC at 50% inhibition
[24] = isolate DI15-116, MIC at 50% inhibition
[25] = isolate DI19-187, MIC at 50% inhibition
[26] = isolate DI19-230, MIC at 50% inhibition
[27] = isolate DI19-231, MIC at 50% inhibition
[28] = isolate DI19-232, MIC at 50% inhibition
[29] = isolate DI19-233, MIC at 50% inhibition
[30] = isolate DI19-234, MIC at 50% inhibition
[31] = isolate DI19-236, MIC at 50% inhibition
[32] = isolate DI19-237, MIC at 50% inhibition
[33] = isolate DI20-95, MIC at 50% inhibition
[34] = isolate DI20-103, MIC at 50% inhibition
[35] = isolate BD1, MIC at 50% inhibition
[36] = isolate BD2, MIC at 50% inhibition
[37] = isolate BD3, MIC at 50% inhibition
[38] = isolate S1, MIC at 50% inhibition
[39] = isolate S3, MIC at 50% inhibition
[40] = ATCC22019, isolate ATCC 22019, read-out: MIC50 Candida parapsilosis
[41] = isolate CP1, read-out: MIC50 C. parapsilosis

C/N=C(/CCNC(=O)c1cc(NC(=O)c2cc(NC(=O)c3ccc(/C=C/c4cnc5ccccc5c4)cc3)cn2C)cn1C)NC [Ia10, 1-methyl-4-(1-methyl-4-(4-((E)-2-(quinolin-3-yl)vinyl)benzamido)-1H-pyrrole-2-carboxamido)-N—((Z)-3-(methylamino)-3-(methylimino)propyl)-1H-pyrrole-2-carboxamide]
MIC50 [1]: ≤ 1 µg/mL
MIC50 Fusarium solani [1]: *** (*** means MIC50 <= 1 μg/mL)
MIC50 [2, 22]: ≤ 1 µg/mL
MIC50 [2, 23]: ≤ 1 µg/mL
MIC50 [2, 24]: ≤ 1 µg/mL
MIC50 [2, 25]: ≤ 1 µg/mL
MIC50 [2, 26]: ≤ 1 µg/mL
MIC50 [2, 27]: 1 to 8 µg/mL (≈ 1.62 to 13 µM)
MIC50 [2, 28]: ≤ 1 µg/mL
MIC50 [2, 29]: ≤ 1 µg/mL
MIC50 [2, 30]: ≤ 1 µg/mL
MIC50 [2, 31]: ≤ 1 µg/mL
MIC50 [2, 32]: ≤ 1 µg/mL
MIC50 [2, 33]: ≤ 1 µg/mL
MIC50 [2, 34]: ≤ 1 µg/mL
MIC99 [3]: < 5 µg/mL
S. aureus Selectivity Indices, Group [4]: B (Group B: 3 < SI <= 5)
MIC80 [4]: < 5 µM
MIC99 [5]: 5 to 25 µg/mL (≈ 8.11 to 40.5 µM)
MIC50 [6, 35]: 1 to 8 µg/mL (≈ 1.62 to 13 µM)
MIC50 [6, 36]: 1 to 8 µg/mL (≈ 1.62 to 13 µM)
MIC50 [6, 37]: 8 to 32 µg/mL (≈ 13 to 51.9 µM)
MIC50 [7]: ≤ 1 µg/mL
MIC50 Fusarium oxysporum [7]: *** (*** means MIC50 <= 1 μg/mL)
MIC50 [8]: ≤ 1 µg/mL
MIC50 [9, 38]: ≤ 1 µg/mL
MIC50 [9, 39]: ≤ 1 µg/mL
MIC50 [10, 40]: 1 to 8 µg/mL (≈ 1.62 to 13 µM)
MIC50 [10, 41]: 1 to 8 µg/mL (≈ 1.62 to 13 µM)
MIC50 C. parapsilosis ([10]; isolate CP2): ** (** means 1 μg/mL < MIC50 <= 8 μg/mL)
MIC50 C. parapsilosis ([10]; isolate CP3): ** (** means 1 μg/mL < MIC50 <= 8 μg/mL)
% Normalised Fluorescence with gDNA [11]: 8%
% Normalised Fluorescence with polyAU RNA [12]: 17%
MIC80 [13]: < 5 µM
MIC99 [14]: < 5 µg/mL
MIC99 [15]: < 5 µg/mL
MIC50 [16]: ≤ 1 µg/mL
MIC99 [17]: < 5 µg/mL
MIC80 [18]: > 100 µM
MIC50 ([19]; isolate CA3): 1 to 8 µg/mL (≈ 1.62 to 13 µM)
MIC50 ([19]; isolate SC5314): 1 to 8 µg/mL (≈ 1.62 to 13 µM)
MIC50 C. albicans [19]: ** (** means 1 μg/mL < MIC50 <= 8 μg/mL)
MIC50 [20]: 1 to 8 µg/mL (≈ 1.62 to 13 µM)
MIC50 C. auris ([20]; isolate DI17-46): ** (** means 1 μg/mL < MIC50 <= 8 μg/mL)
MIC50 C. auris ([20]; isolate DI17-48): ** (** means 1 μg/mL < MIC50 <= 8 μg/mL)
MIC50 [21]: 1 to 8 µg/mL (≈ 1.62 to 13 µM)

[H]/N=C(\CCNC(=O)c1cc(NC(=O)c2cc(NC(=O)c3ccc(C=Cc4ccc(N(C)C)cc4)nc3)cn2C)cn1C)NC [Ia9, (E)-6-(4-(dimethylamino)styryl)-N-(5-((5-((3-imino-3-(methylamino)propyl)carbamoyl)-1-methyl-1H-pyrrol-3-yl)carbamoyl)-1-methyl-1H-pyrrol-3-yl)nicotinamide]
MIC50 [1]: ≤ 1 µg/mL
MIC50 Fusarium solani [1]: *** (*** means MIC50 <= 1 μg/mL)
MIC50 [2, 22]: 1 to 8 µg/mL (≈ 1.68 to 13.4 µM)
MIC50 [2, 23]: 1 to 8 µg/mL (≈ 1.68 to 13.4 µM)
MIC50 [2, 24]: 1 to 8 µg/mL (≈ 1.68 to 13.4 µM)
MIC50 [2, 25]: 1 to 8 µg/mL (≈ 1.68 to 13.4 µM)
MIC50 [2, 26]: 1 to 8 µg/mL (≈ 1.68 to 13.4 µM)
MIC50 [2, 27]: 1 to 8 µg/mL (≈ 1.68 to 13.4 µM)
MIC50 [2, 28]: 1 to 8 µg/mL (≈ 1.68 to 13.4 µM)
MIC50 [2, 29]: 1 to 8 µg/mL (≈ 1.68 to 13.4 µM)
MIC50 [2, 30]: 1 to 8 µg/mL (≈ 1.68 to 13.4 µM)
MIC50 [2, 31]: 1 to 8 µg/mL (≈ 1.68 to 13.4 µM)
MIC50 [2, 32]: 1 to 8 µg/mL (≈ 1.68 to 13.4 µM)
MIC50 [2, 33]: 1 to 8 µg/mL (≈ 1.68 to 13.4 µM)
MIC50 [2, 34]: 1 to 8 µg/mL (≈ 1.68 to 13.4 µM)
MIC99 [3]: 5 to 25 µg/mL (≈ 8.39 to 42 µM)
S. aureus Selectivity Indices, Group [4]: C (Group C: 5 < SI <= 10)
MIC80 [4]: 5 to 25 µM (≈ 2.98 to 14.9 µg/mL)
MIC99 [5]: 5 to 25 µg/mL (≈ 8.39 to 42 µM)
MIC50 [6, 35]: 1 to 8 µg/mL (≈ 1.68 to 13.4 µM)
MIC50 [6, 36]: 1 to 8 µg/mL (≈ 1.68 to 13.4 µM)
MIC50 [6, 37]: 1 to 8 µg/mL (≈ 1.68 to 13.4 µM)
MIC50 [7]: ≤ 1 µg/mL
MIC50 Fusarium oxysporum [7]: *** (*** means MIC50 <= 1 μg/mL)
MIC50 [8]: 1 to 8 µg/mL (≈ 1.68 to 13.4 µM)
MIC50 [9, 38]: 1 to 8 µg/mL (≈ 1.68 to 13.4 µM)
MIC50 [9, 39]: ≤ 1 µg/mL
MIC50 [10, 40]: 1 to 8 µg/mL (≈ 1.68 to 13.4 µM)
MIC50 [10, 41]: 1 to 8 µg/mL (≈ 1.68 to 13.4 µM)
MIC50 C. parapsilosis ([10]; isolate CP2): ** (** means 1 μg/mL < MIC50 <= 8 μg/mL)
MIC50 C. parapsilosis ([10]; isolate CP3): ** (** means 1 μg/mL < MIC50 <= 8 μg/mL)
% Normalised Fluorescence with gDNA [11]: 13%
% Normalised Fluorescence with polyAU RNA [12]: 19%
MIC80 [13]: 25 to 100 µM (≈ 14.9 to 59.6 µg/mL)
MIC99 [14]: 5 to 25 µg/mL (≈ 8.39 to 42 µM)
MIC99 [15]: 5 to 25 µg/mL (≈ 8.39 to 42 µM)
MIC50 [16]: ≤ 1 µg/mL
MIC99 [17]: < 5 µg/mL
MIC80 [18]: > 100 µM
MIC50 ([19]; isolate CA3): 1 to 8 µg/mL (≈ 1.68 to 13.4 µM)
MIC50 ([19]; isolate SC5314): 1 to 8 µg/mL (≈ 1.68 to 13.4 µM)
MIC50 C. albicans [19]: ** (** means 1 μg/mL < MIC50 <= 8 μg/mL)
MIC50 [20]: 1 to 8 µg/mL (≈ 1.68 to 13.4 µM)
MIC50 C. auris ([20]; isolate DI17-46): ** (** means 1 μg/mL < MIC50 <= 8 μg/mL)
MIC50 C. auris ([20]; isolate DI17-48): ** (** means 1 μg/mL < MIC50 <= 8 μg/mL)
MIC50 [21]: 1 to 8 µg/mL (≈ 1.68 to 13.4 µM)
